In PubChem BioAssay (NCI):
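Five concentrations, 48 hours, 96-well plates. TGI marks complete inhibition of growth.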 Where a SMILES comes first, the peptide text is derived from it. Bridges are numbered along the chain shown (N, C = ends). [ ]: non-standard residue; d: D form. Aib = CC(C)(N)C(=O)O; βAla = NCCC(=O)O

Legend:
Test in all cases: growth of human tumour cells (NCI), 48 h
[1] = system: HOP-62 NSCLC
[2] = system: HL-60(TB) leukemia
[3] = system: COLO 205 colon
[4] = system: K-562 leukemia
[5] = system: M14 melanoma
[6] = system: NCI/ADR-RES ovarian
[7] = system: SNB-19 CNS
[8] = system: ACHN renal
[9] = system: A498 renal
[10] = system: 786-0 renal
[11] = system: SR leukemia

O=C(C=P(c1ccccc1)(c1ccccc1)c1ccccc1)c1ccc(-c2cccs2)cc1
TGI [1]: 20.7 µM
TGI [2]: 4.87 µM
TGI [3]: 1.95 µM
TGI [4]: 15.9 µM
TGI [5]: 7.75 µM
TGI [6]: 23.1 µM
TGI [7]: 11.2 µM
TGI [8]: 19.8 µM
TGI [9]: 10.8 µM
TGI [10]: 17.6 µM

Cc1c(C)c2ccc(OCC(O)COC(C)C)c(C)c2oc1=O (configuration not stated)
TGI [11]: 87.4 µM
TGI [1]: 58.6 µM
TGI [2]: 60.3 µM
TGI [3]: > 10 µM
TGI [4]: 71.4 µM
TGI [5]: 42 µM
TGI [6]: > 100 µM
TGI [7]: > 100 µM
TGI [8]: > 100 µM
TGI [10]: > 10 µM

CC1(C)NC(=O)C(NC(=O)C(N)CC(=O)O)CCCCNC(=O)CCNC1=O (configuration not stated) (H-DK[Aib][βAla]; lactam 2-C; configuration not given here)
TGI [1]: > 100 µM
TGI [3]: > 100 µM
TGI [4]: > 100 µM
TGI [5]: > 100 µM
TGI [6]: > 100 µM
TGI [7]: > 100 µM
TGI [8]: > 100 µM
TGI [9]: > 100 µM
TGI [10]: > 100 µM

COc1ccc2c3c1OC1C(F)C=CC4(O)C(C2)NCCC314 (configuration not stated)
TGI [11]: 4.42 µM
TGI [1]: 7.13 µM
TGI [3]: 3.12 µM
TGI [4]: > 100 µM
TGI [5]: 4.93 µM
TGI [6]: 38.3 µM
TGI [7]: 5.78 µM
TGI [8]: 10.8 µM
TGI [9]: 15.6 µM
TGI [10]: 3.27 µM

Nc1nc(Cl)cc(NCC2(O)CCC2)n1
TGI [11]: > 100 µM
TGI [1]: > 100 µM
TGI [2]: > 100 µM
TGI [3]: > 100 µM
TGI [4]: > 100 µM
TGI [6]: > 100 µM
TGI [8]: > 100 µM
TGI [9]: > 100 µM
TGI [10]: > 100 µM

Cc1ccc(C)n1-c1ccccc1C1C=Cn2c(=O)nnc3c(OC(C)C)c(OC(C)C)c(O)c1c32 (configuration not stated)
TGI [1]: > 100 µM
TGI [2]: 59.6 µM
TGI [3]: 27.7 µM
TGI [4]: > 100 µM
TGI [5]: > 100 µM
TGI [6]: > 100 µM
TGI [7]: > 100 µM
TGI [8]: > 100 µM
TGI [9]: > 100 µM
TGI [10]: 65.7 µM

COc1ccc(N=c2oc3ccccc3cc2C(N)=O)cc1
TGI [11]: > 100 µM
TGI [1]: 34.8 µM
TGI [2]: > 100 µM
TGI [3]: > 100 µM
TGI [4]: > 100 µM
TGI [5]: > 100 µM
TGI [6]: > 100 µM
TGI [7]: 24.7 µM
TGI [8]: 37.1 µM
TGI [10]: 68.8 µM

CC(=O)OC[C@H]1CN(OC(C)=O)C[C@@H](n2cc(C)c(=O)[nH]c2=O)O1
TGI [1]: > 100 µM
TGI [2]: > 100 µM
TGI [3]: > 100 µM
TGI [4]: > 100 µM
TGI [5]: > 100 µM
TGI [7]: > 100 µM
TGI [8]: > 100 µM
TGI [9]: > 100 µM
TGI [10]: > 100 µM

CCOC(=O)C1(C#N)OC(=O)c2cnccc21 (configuration not stated)
TGI [11]: > 100 µM
TGI [2]: > 100 µM
TGI [3]: > 100 µM
TGI [4]: > 100 µM
TGI [5]: > 100 µM
TGI [6]: > 100 µM
TGI [7]: > 100 µM
TGI [8]: > 100 µM
TGI [9]: > 100 µM
TGI [10]: > 100 µM

O=C(Nc1ccccc1)c1cc(S(=O)(=O)Nc2n[nH]c(=O)n2-c2ccccc2)c(S)cc1Cl
TGI [11]: > 100 µM
TGI [2]: > 100 µM
TGI [3]: > 100 µM
TGI [4]: > 100 µM
TGI [5]: > 100 µM
TGI [6]: > 100 µM
TGI [7]: > 100 µM
TGI [9]: > 100 µM
TGI [10]: > 100 µM

CCOC(=O)C(C(=O)OCC)=C1SC(=Nc2ccccc2)C(=Nc2ccccc2)N1c1ccccc1
TGI [11]: > 100 µM
TGI [1]: > 100 µM
TGI [2]: > 100 µM
TGI [3]: > 100 µM
TGI [4]: > 100 µM
TGI [6]: > 100 µM
TGI [7]: > 100 µM
TGI [8]: > 100 µM
TGI [9]: > 100 µM
TGI [10]: > 100 µM

Cc1[nH]c(=O)nc2nc3cc(Cl)cc(Cl)c3c(NC(C)(CO)CO)c12
TGI [1]: 83.7 µM
TGI [3]: > 100 µM
TGI [4]: > 100 µM
TGI [5]: > 100 µM
TGI [6]: > 100 µM
TGI [7]: > 100 µM
TGI [8]: > 100 µM
TGI [9]: 99.4 µM
TGI [10]: 91.6 µM

CC1CC(N)=C(C#N)C1(C#N)C#N (configuration not stated)
TGI [2]: > 100 µM
TGI [3]: > 100 µM
TGI [4]: > 100 µM
TGI [5]: > 100 µM
TGI [6]: > 100 µM
TGI [7]: > 100 µM
TGI [8]: > 100 µM
TGI [9]: > 100 µM
TGI [10]: > 100 µM

OC1(C(Sc2cc(C(F)(F)F)cc(C(F)(F)F)c2)Sc2cc(C(F)(F)F)cc(C(F)(F)F)c2)C=CCCC1 (configuration not stated)
TGI [1]: 11.4 µM
TGI [2]: 3.97 µM
TGI [3]: 5.59 µM
TGI [4]: 5.42 µM
TGI [5]: 6.53 µM
TGI [6]: 10.1 µM
TGI [7]: 8.2 µM
TGI [8]: 5.77 µM
TGI [9]: 4.58 µM
TGI [10]: 8.09 µM

COc1ccccc1Nc1nc2c([nH]1)c(=O)n(C)c(=O)n2C
TGI [11]: > 10 µM
TGI [1]: > 10 µM
TGI [2]: > 10 µM
TGI [3]: > 10 µM
TGI [4]: > 10 µM
TGI [5]: > 10 µM
TGI [10]: > 10 µM

N#Cc1ccc(C(O)C(F)(F)c2nc3ccccc3o2)cc1 (configuration not stated)
TGI [11]: > 100 µM
TGI [1]: > 100 µM
TGI [2]: > 100 µM
TGI [3]: > 100 µM
TGI [4]: 45.7 µM
TGI [5]: > 100 µM
TGI [6]: > 100 µM
TGI [7]: > 100 µM
TGI [8]: > 100 µM
TGI [10]: > 100 µM

CC1=NN(c2cccc(Cl)c2)C2(SCC(=O)N2c2nc3ccccc3s2)C1=CC=Cc1ccccc1 (configuration not stated)
TGI [11]: 61.8 µM
TGI [1]: > 100 µM
TGI [2]: 3.04 µM
TGI [4]: > 100 µM
TGI [5]: > 100 µM
TGI [6]: > 100 µM
TGI [8]: 65.9 µM
TGI [9]: 61.9 µM
TGI [10]: > 100 µM

O=C(Nc1ccc(C(F)(F)F)cc1)NC(F)(F)F
TGI [11]: > 100 µM
TGI [2]: > 100 µM
TGI [3]: > 100 µM
TGI [4]: > 100 µM
TGI [5]: > 100 µM
TGI [6]: > 100 µM
TGI [7]: > 100 µM
TGI [8]: > 100 µM
TGI [9]: > 100 µM
TGI [10]: > 100 µM

Cc1cc(S(=O)(=O)Nc2n[nH]c(-c3ccc(Cl)cc3)n2)c(SSc2cc(Cl)c(C)cc2S(=O)(=O)Nc2n[nH]c(-c3ccc(Cl)cc3)n2)cc1Cl
TGI [11]: 55.3 µM
TGI [1]: > 100 µM
TGI [2]: 48.5 µM
TGI [3]: 67.4 µM
TGI [4]: 62.3 µM
TGI [5]: > 100 µM
TGI [6]: > 100 µM
TGI [8]: 98.5 µM
TGI [9]: 59.1 µM
TGI [10]: > 100 µM

CCOC1OC(COC(=O)C(C)(C)C)C(O)CC1n1cc(C)c(=O)[nH]c1=O (configuration not stated)
TGI [11]: > 100 µM
TGI [3]: > 100 µM
TGI [4]: > 100 µM
TGI [5]: > 100 µM
TGI [6]: > 100 µM
TGI [7]: > 100 µM
TGI [8]: > 100 µM
TGI [9]: > 100 µM
TGI [10]: > 100 µM

N#C/C(=C\c1ccc(F)cc1)c1nc(-c2cc3ccccc3oc2=O)cs1
TGI [11]: > 100 µM
TGI [1]: 25.7 µM
TGI [2]: > 100 µM
TGI [3]: > 100 µM
TGI [4]: > 100 µM
TGI [5]: 50.7 µM
TGI [6]: > 100 µM
TGI [7]: 41.1 µM
TGI [8]: > 100 µM
TGI [10]: 37.1 µM

O=c1oc2ccc3ccccc3c2cc1-c1nnc(Nc2ccccc2)s1
TGI [11]: 81.7 µM
TGI [4]: > 100 µM
TGI [5]: > 100 µM
TGI [6]: > 100 µM
TGI [7]: 65.4 µM
TGI [8]: 27.2 µM
TGI [9]: 22.4 µM
TGI [10]: 31.6 µM
